The source of these data is US20240173232A1, “COSMETIC COMPOSITION COMPRISING CARNITINE-SALICYLATE AS ACTIVE INGREDIENT” (LG HOUSEHOLD & HEALTH CARE LTD., priority 2021, published 2024).

For one series, the system named is pig back skin. Nature of the series: In vitro exfoliation efficacy (detached keratinocytes from pig back skin). The conditions noted are these: 16 hours, n=5. Here is the method: The pig back skin surface was washed with phosphate buffer saline (PBS) and then cut to a certain size. Thereafter, the stratum corneum of the pig skin was exposed and placed on a 96-well plate, 100 μl of each sample was applied, and the 96-well plate was left in a constant temperature and humidity chamber for 16 hours. Thereafter, the supernatant of each sample was mixed well with a trypan blue solution in the 96-well plate to measure the number of detached keratinocytes. In order to verify the suitability of the relative dead skin cell control efficacy evaluation method used in this study, the following method was used. […] After treating the pig skin with the sample by the method described above, the number of detached keratinocytes was counted, and the number of detached keratinocytes in PHA (DL-gluconolactone) at pH 4.0 was set to 100% to evaluate the relative exfoliation efficacy. All evaluations were made at n=5 to secure reliability through repeated results.

The test system of series [1] is Raw 264.7 cells. Nature of the series: NO production inhibition in LPS-treated Raw 264.7 cells (GRIESS method). The series is classed as cell-based, rat. The conditions noted are these: LPS 500 ng/ml. Here is the method: The anti-inflammatory effect of carnitine-salicylate (CA-SA) was confirmed experimentally.
In order to evaluate the efficacy of relieving inflammation caused by external stimuli in vitro, an experiment was performed by the GRIESS method using Raw 264.7 cells (ATCC number: CRL-2788), which are rat macrophage cell line, to evaluate the inhibition of NO production after treatment with lipopolysaccharide (LPS, Sigma Aldrich, USA). […] After removing the medium and performing starvation with a serum-free medium for 12 hours, the test material was treated at 0.1 to 100 ppm for 30 minutes, and then LPS was added at a concentration of 500 ng/ml and the cells were further cultured for 18 hours. After culturing, the supernatant was taken and transferred to a 96-well plate, GRIESS reagent was added and reacted at room temperature for 15 minutes, and absorbance at 540 nm was measured using an ELISA reader.

Series [2] deals with Raw 264.7 cells. Kind of series: MTT cytotoxicity assay, Raw 264.7 cells. The conditions noted are these: 24 hours. The protocol: (§1) The cytotoxicity of carnitine-salicylate (CA-SA) was evaluated by 3-(4,5-dimethythiazol-2-yl)-2,5-diphenyl tetrazolium bromide (MTT) assay. […] After removing the medium and adding each sample to a medium without FBS and incubating for 24 hours, the medium was removed, an MTT solution was added at a concentration of […], and reacted at 37° C. for 3 hours. The unreacted MTT solution was removed, and 100 μl of DMSO was added to dissolve the formed reaction product, and then absorbance was measured at 540 nm to confirm the cytotoxicity.
(§2) The cytotoxicity of salicylate, carnitine, and carnitine-salicylate (CA-SA) was evaluated by treating Raw 264.7 cells, which are rat macrophages, and human fibroblasts with the material. As a Raw 264.7 cell is a representative cell used to measure NO inhibitory efficacy in anti-inflammatory efficacy evaluations, its cytotoxicity was evaluated, and cytotoxicity with respect to fibroblasts was evaluated in order to confirm the toxicity that may be induced when the material is included in cosmetics and be repeatedly applied to the skin.

The subject of series [3] is fibroblasts obtained from human skin tissue. Kind of series: MTT cytotoxicity assay, human fibroblasts. Conditions: 24 hours. Here is the method: as §1, §2
The mark [4] stands for this setting: 2% (mixture 1% + 1%), pH 5.5, relative to 10% gluconolactone pH 4.0 = 100%.

Turning to `C[N+](C)(C)CC(O)CC(=O)[O-]` (centres unmarked) [CA, 4-trimethylamino-3-hydroxybutyric acid], the “Exfoliation rate (%)” value with pig back skin (setting [4]) was 55.2%. Also, the inhibition at 10 ppm with Raw 264.7 cells [1] (Mus musculus, RAW264.7, 10 ppm (mixture 10 ppm + 10 ppm), 18 hours, read-out: NO inhibition rate) was 0%.

Regarding `CC(=O)O.CNC(=N)NCCC[C@H](N)C(=O)O` [L-MMMA, NG-monomethyl-L-arginine acetate], in the series on Raw 264.7 cells [1] (positive control), the NO inhibition rate turned out to be 62.2%.

With `O=C1O[C@H](CO)[C@@H](O)[C@H](O)[C@H]1O` (racemic) [Gloconolactone, DL-gluconolactone], the “Exfoliation rate (%)” value in the series with pig back skin (10%, pH 4, positive control set to 100%) came to 100.0%; in the series with pig back skin (10%, pH 6, relative to gluconolactone pH 4.0 = 100%), 32.0%.

Take `O=C(O)c1ccccc1O` [SA, salicylate]: the “Exfoliation rate (%)” value in the series on pig back skin (setting [4]) amounted to 19.2%. Also, the cell viability is 96.16% in the series with Raw 264.7 cells [2] (50 ppm), 79.74% in the series on Raw 264.7 cells [2] (100 ppm), 94.83% in series [3] (50 ppm) and 85.36% in series [3] (100 ppm). For the same compound, the NO inhibition rate with Raw 264.7 cells [1] (10 ppm (mixture 10 ppm + 10 ppm), 18 hours) was 16.4%.
